pIC50: −log10 of the molar value.
Tests used:
Type in all cases: biochemical
[1] = biological target: Caspase-3 (Homo sapiens (Human), UniProt P42574); assay: Caspase-3 assay, inhibition of caspase activity; details: human caspase-3
Protocol: (§1) Assay for the Inhibition of Caspase Activity and Determination of IC50 Values
(§2) Human caspases were purchased from Enzo Biosciences and used according to the manufacturer's instructions. An exemplary caspase assay, for Caspase-1, is provided below:
(§3) The data was graphed as OD405 nm vs time, and the slope was determined over the linear portion of the curve. The rates in OD/min were converted to substrate/min using an extinction coefficient for p-nitroaniline of 10,500 M-1 cm-1, and were adjusted for pathlength of sample. Similarly assays were conducted for Caspase-3, Caspase-8 and Caspase-9. The Table below provides a summary of the binding data for the compounds prepared according to Examples 1-4: […]

[2] = biological target: Caspase-1 (Homo sapiens (Human), UniProt P29466); assay: Caspase-1 assay, inhibition of caspase activity (Ac-YVAD-pNA substrate); details: human caspase-1, Ac-YVAD-pNA 200 μM, read at 405 nm
Protocol: as §1, §2
Caspase-1 was diluted to 10 U/μl in assay buffer consisting of 50 mM HEPES, pH 7.4, 100 mM NaCl, 0.1% CHAPS, 1 mM EDTA, 10% glycerol and 10 mM DTT.
45 μl of assay buffer was added into ½ volume microtiter plate. The plate was allowed to equilibrate to assay temperature. 5 μl of Caspase-1 (10 U/μl) was added to each appropriate well. Two 2 blank wells containing just assay buffer without Caspase-1 were included on the plate.
The reaction was started by the addition of 50 μl Ac-YVAD-pNA substrate, for a final substrate concentration of 200 μM. The reaction was continuously monitored at 405 nm.
as §3

[3] = biological target: Caspase-9 (Homo sapiens (Human), UniProt P55211); assay: Caspase-9 assay, inhibition of caspase activity; details: human caspase-9
Protocol: as §1, §2, §3

[4] = biological target: Caspase-8 (Homo sapiens (Human), UniProt Q14790); assay: Caspase-8 assay, inhibition of caspase activity; details: human caspase-8
Protocol: as §1, §2, §3

Chain of Caspase-8 (Q14790 217-374): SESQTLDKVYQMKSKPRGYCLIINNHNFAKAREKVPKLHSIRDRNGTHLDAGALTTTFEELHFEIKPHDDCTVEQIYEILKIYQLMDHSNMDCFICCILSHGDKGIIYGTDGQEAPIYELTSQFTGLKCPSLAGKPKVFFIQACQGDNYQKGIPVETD
Chain of Caspase-8 (Q14790 385-479): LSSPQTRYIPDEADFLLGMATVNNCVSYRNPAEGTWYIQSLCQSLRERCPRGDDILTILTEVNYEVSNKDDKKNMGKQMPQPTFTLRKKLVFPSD
Chain of Caspase-9 (P55211 1-315): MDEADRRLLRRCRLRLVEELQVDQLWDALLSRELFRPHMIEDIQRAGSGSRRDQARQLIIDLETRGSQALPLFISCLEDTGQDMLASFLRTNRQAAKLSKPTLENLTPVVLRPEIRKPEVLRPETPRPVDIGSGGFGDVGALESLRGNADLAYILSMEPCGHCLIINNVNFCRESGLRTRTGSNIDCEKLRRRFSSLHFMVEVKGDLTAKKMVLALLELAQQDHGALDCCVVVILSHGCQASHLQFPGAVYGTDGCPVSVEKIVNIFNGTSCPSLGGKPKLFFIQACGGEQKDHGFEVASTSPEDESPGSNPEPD
Chain of Caspase-9 (P55211 331-416): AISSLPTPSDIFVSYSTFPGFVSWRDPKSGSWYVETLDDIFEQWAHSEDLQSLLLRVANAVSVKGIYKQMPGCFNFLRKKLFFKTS
Chain of Caspase-3 (P42574 29-175): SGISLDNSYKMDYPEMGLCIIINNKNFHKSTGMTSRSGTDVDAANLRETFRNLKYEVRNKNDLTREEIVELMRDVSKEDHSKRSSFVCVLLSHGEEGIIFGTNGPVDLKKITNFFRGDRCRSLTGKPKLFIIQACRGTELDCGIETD
Chain of Caspase-3 (P42574 176-277): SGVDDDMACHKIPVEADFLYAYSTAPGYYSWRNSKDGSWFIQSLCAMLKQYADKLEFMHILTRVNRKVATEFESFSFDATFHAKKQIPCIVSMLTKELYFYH
Chain of Caspase-1 (P29466 120-297): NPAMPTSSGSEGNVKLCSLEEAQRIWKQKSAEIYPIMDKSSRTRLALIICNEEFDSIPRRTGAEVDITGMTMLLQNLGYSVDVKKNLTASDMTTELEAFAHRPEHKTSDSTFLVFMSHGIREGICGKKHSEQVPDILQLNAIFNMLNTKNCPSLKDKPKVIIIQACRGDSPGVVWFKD
Chain of Caspase-1 (P29466 317-404): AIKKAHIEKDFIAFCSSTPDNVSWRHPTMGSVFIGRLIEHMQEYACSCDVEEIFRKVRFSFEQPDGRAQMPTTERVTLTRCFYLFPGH

Row | Structure (SMILES) | pIC50 [1] | pIC50 [2] | pIC50 [3] | pIC50 [4]
1 | O=C(O)C[C@H](NC(=O)CN1CCN(Cc2ccccc2)C(=O)C1)C(=O)COc1c(F)c(F)cc(F)c1F [Example 1, (S)-3-(2-(4-Benzyl-3-oxopiperazin-1-yl)acetamido)-4-oxo-5-(2,3,5,6-tetrafluorophenoxy)pentanoic acid] | 6.88 | 8.05 | 6.91 | 6.88
2 | O=C(O)C[C@H](NC(=O)CN1CCN(Cc2ccccc2)CC1=O)C(=O)COc1c(F)c(F)cc(F)c1F [Example 2, (S)-3-(2-(4-Benzyl-2-oxopiperazin-1-yl)acetamido)-4-oxo-5-(2,3,5,6-tetrafluorophenoxy)pentanoic acid] | 7.49 | 8.40 | 7.42 | 7.55
3 | O=C(O)C[C@H](NC(=O)CN1CCN(Cc2ccccc2)C(=O)C1)C(=O)COc1ccnc(C(F)(F)F)n1 [Example 3, (S)-3-(2-(4-Benzyl-3-oxopiperazin-1-yl)acetamido)-4-oxo-5-((2-(trifluoromethyl)pyrimidin-4-yl)oxy)pentanoic acid] | 6.00 | 7.19 | 6.00 | 6.40
4 | O=C(O)C[C@H](NC(=O)CN1CCN(S(=O)(=O)c2ccccc2)CC1)C(=O)COc1c(F)c(F)cc(F)c1F [Example 4, (S)-4-oxo-3-(2-(4-(phenylsulfonyl)piperazin-1-yl)acetamido)-5-(2,3,5,6-tetrafluorophenoxy)pentanoic acid] | 6.70 | 8.70 | 6.97 | 9.00

From patent US11447497B2, “(S)-3-(2-(4-(benzyl)-3-oxopiperazin-1-yl)acetamido)-4-oxo-5-(2,3,5,6-tetrafluorophenoxy)pentanoic acid derivatives and related compounds as caspase inhibitors for treating cardiovascular diseases” (HISTOGEN, INC., priority 2018, dated 2022)
